Measurements: the supplement of paper PMC10307832

Experiments:
Experiment in all cases: relative viability (nuclei count vs DMSO), 5 days (fraction); higher = more cells survive
Salubrinal + Trametinib = compound: O=C(/C=C/c1ccccc1)NC(NC(=S)Nc1cccc2cccnc12)C(Cl)(Cl)Cl [Salubrinal] + CC(=O)Nc1cccc(-n2c(=O)n(C3CC3)c(=O)c3c(Nc4ccc(I)cc4F)n(C)c(=O)c(C)c32)c1 [Trametinib] (partner 0.02 µM)
How it was run: (§1)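 One day after seeding in 1536-well plates, lung cancer cell lines were dosed by pin tool. Dosing was either single-drug or a fixed anchor-drug dose plus five library-drug doses (not always all listed) in √10 steps. After 5 days, nuclei were stained in one fix-and-stain step and counted on 4× images, and relative viability is the nuclei count of treated wells over that of vehicle wells, given as the median of duplicate plates.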

Salubrinal + Foretinib = compound: O=C(/C=C/c1ccccc1)NC(NC(=S)Nc1cccc2cccnc12)C(Cl)(Cl)Cl [Salubrinal] + COc1cc2c(Oc3ccc(NC(=O)C4(C(=O)Nc5ccc(F)cc5)CC4)cc3F)ccnc2cc1OCCCN1CCOCC1 [Foretinib] (partner 0.25 µM)
How it was run: as §1

[1] = compound: Cc1ccc2nc(NCCN)c3ncc(C)n3c2c1 + Cc1nc(Nc2ncc(C(=O)Nc3c(C)cccc3Cl)s2)cc(N2CCN(CCO)CC2)n1 [Dasatinib] (partner 0.075 µM)
How it was run: as §1

Salubrinal + Pictilisib = compound: O=C(/C=C/c1ccccc1)NC(NC(=S)Nc1cccc2cccnc12)C(Cl)(Cl)Cl [Salubrinal] + CS(=O)(=O)N1CCN(Cc2cc3nc(-c4cccc5[nH]ncc45)nc(N4CCOCC4)c3s2)CC1 [Pictilisib] (partner 1 µM)
How it was run: as §1

Cell Line | relative viability (Salubrinal + Trametinib; first compound 0.08 µM) | relative viability (Salubrinal + Trametinib; first compound 0.253 µM) | relative viability (Salubrinal + Trametinib; first compound 0.8 µM) | relative viability (Salubrinal + Trametinib; first compound 2.53 µM) | relative viability (Salubrinal + Trametinib; first compound 8 µM) | relative viability (Salubrinal + Foretinib; first compound 0.08 µM) | relative viability (Salubrinal + Foretinib; first compound 0.253 µM) | relative viability (Salubrinal + Foretinib; first compound 0.8 µM) | relative viability (Salubrinal + Foretinib; first compound 2.53 µM) | relative viability (Salubrinal + Foretinib; first compound 8 µM) | relative viability ([1]; first compound 0.04 µM) | relative viability ([1]; first compound 0.1265 µM) | relative viability ([1]; first compound 0.4 µM) | relative viability ([1]; first compound 1.265 µM) | relative viability ([1]; first compound 4 µM) | relative viability (Salubrinal + Pictilisib; first compound 0.08 µM) | relative viability (Salubrinal + Pictilisib; first compound 0.253 µM) | relative viability (Salubrinal + Pictilisib; first compound 0.8 µM) | relative viability (Salubrinal + Pictilisib; first compound 2.53 µM) | relative viability (Salubrinal + Pictilisib; first compound 8 µM)
NCI-H596 | 0.851 | 0.745 | 0.747 | 0.817 | 0.675 | 0.949 | 1.17 | 0.809 | 0.799 | 0.701 | 0.677 | 0.645 | 0.524 | 0.524 | 0.648 | 0.421 | 0.347 | 0.437 | 0.456 | 0.401
NCI-H322M | 0.542 | 0.517 | 0.487 | 0.565 | 0.521 | 1.07 | 1.07 | 0.969 | 0.832 | 0.856 | 0.251 | 0.267 | 0.259 | 0.269 | 0.263 | 0.476 | 0.541 | 0.578 | 0.539 | 0.498
NCI-H2228 | 0.457 |  | 0.745 | 0.385 | 0.622 | 0.976 | 0.875 | 0.953 | 0.844 | 0.868 | 0.496 | 0.456 | 0.455 | 0.505 | 0.377 | 0.472 | 0.356 | 0.31 | 0.543 | 0.321
NCI-H647 | 0.619 | 0.431 | 0.524 | 0.502 | 0.433 | 1.4 | 1.2 | 1.27 | 1.17 | 1.12 | 0.172 | 0.191 | 0.163 | 0.169 | 0.141 | 0.298 | 0.421 | 0.421 | 0.501 | 0.427
NCI-H2170 | 1.1 | 0.658 | 0.979 | 0.941 | 0.925 | 1.14 | 0.808 | 1.07 | 1.04 | 0.888 | 0.565 | 0.646 | 0.58 | 0.58 | 0.564 | 0.29 | 0.315 | 0.335 | 0.294 | 0.271
NCI-H1793 | 0.484 | 0.437 | 0.402 | 0.42 | 0.304 | 0.879 | 0.645 | 0.754 | 0.595 | 0.508 | 0.386 | 0.417 | 0.389 | 0.332 | 0.384 | 0.309 | 0.319 | 0.306 | 0.316 | 0.285
NCI-H2085 | 0.632 | 0.539 | 0.617 | 0.52 | 0.487 | 1.2 | 0.793 | 0.894 | 0.924 | 1.01 | 0.207 | 0.263 | 0.222 | 0.196 | 0.243 | 0.464 | 0.475 | 0.512 | 0.542 | 0.489
SW 1573 | 0.789 | 0.615 | 0.588 | 0.485 | 0.469 | 0.875 | 0.719 | 0.979 | 0.954 | 1.07 | 0.576 | 0.534 | 0.468 | 0.48 | 0.244 | 0.539 | 0.406 | 0.537 | 0.465 | 0.471
NCI-H727 | 0.375 | 0.375 | 0.383 | 0.372 | 0.403 | 1.09 | 0.856 | 1.06 | 0.778 | 0.898 | 0.4 |  | 0.338 | 0.321 | 0.365 | 0.318 | 0.312 | 0.433 | 0.197 | 0.359
NCI-H441 | 0.48 | 0.415 | 0.48 | 0.507 | 0.462 | 1.24 | 0.917 | 1.03 | 0.947 | 0.862 | 0.556 | 0.552 | 0.551 | 0.673 | 0.445 | 0.479 | 0.432 | 0.705 | 0.534 | 0.294
LOU-NH91 | 0.728 | 0.822 | 0.788 | 0.824 | 0.757 | 0.948 | 1.02 | 0.957 | 0.921 | 0.99 | 0.562 | 0.547 | 0.531 | 0.539 | 0.559 | 0.541 | 0.502 | 0.576 | 0.479 | 0.53
NCI-H3122 | 0.259 | 0.239 | 0.282 | 0.226 | 0.226 | 1.07 | 0.924 | 1.03 | 0.986 | 0.964 | 0.78 | 0.901 | 0.707 | 1.02 | 0.869 | 0.565 | 0.633 | 0.657 | 0.694 | 0.663
NCI-H460 | 0.114 | 0.24 | 0.125 | 0.121 | 0.126 | 1.15 | 0.987 | 0.975 | 1.09 | 0.914 | 0.448 | 0.546 | 0.613 | 0.499 | 0.468 | 0.261 | 0.296 | 0.398 | 0.482 | 0.518
NCI-H650 | 1.1 | 0.94 | 1.08 | 1 | 0.976 | 1.06 | 1.19 | 1.02 | 1.1 | 1.05 | 0.49 | 0.449 | 0.464 | 0.431 | 0.448 | 0.678 | 1.1 | 0.968 | 0.916 | 0.842
NCI-H661 | 0.781 | 0.523 | 0.574 | 0.577 | 0.546 | 0.996 | 1.06 | 1.05 | 0.991 | 1.02 | 0.927 | 0.943 | 0.88 | 0.835 | 0.748 | 0.434 | 0.196 | 0.443 | 0.384 | 0.569
NCI-H1734 | 0.704 | 0.742 | 0.787 | 0.656 | 0.597 | 0.944 | 0.774 | 0.981 | 0.841 | 0.779 | 0.515 | 0.456 | 0.474 | 0.447 | 0.409 | 0.452 | 0.508 | 0.503 | 0.517 | 0.438
